Experimental data as given in US20120208781A1, “AMINOGLYCOSIDE DOSING REGIMENS” (Achaogen, Inc., priority 2009, published 2012).
Converted amounts (≈) assume the structure as drawn. “And” between values parts separate entries of the source, which are not always exact repeats. Equal values may be shown once. “Also recorded” adds a separate entry of the source.

Key:
Acinetobacter spp. (ACB) = assay: MIC, CLSI broth microdilution, worldwide isolates: Acinetobacter spp.; type: cell-based
Excerpt: (§1) In the first study, a total of 235 isolates were collected from medical centers worldwide and tested for susceptibility to Compound 1 and comparator agents by CLSI broth microdilution methods. […] Non-ENT GN pathogens included WT P. aeruginosa (PSA) and Acinetobacter spp. (ACB), and carbapenem (CARB)-R strains, including those with MBL and OXA enzymes, SA and coagulase-negative staphylococci (CoNS) included oxacillin-susceptible (MSSA/MS-CoNS) and —R (MRSA/MR-CoNS) strains.
(§2) Minimum inhibitory concentrations (MIC) were determined by reference Clinical and Laboratory Standards Institute (CLSI) broth microdilution methods per M7-A7 [2006]. Briefly, serial two-fold dilutions of Compound 1 and comparator AGs (together, “the test compounds”) were prepared at 2× concentration in appropriate diluent. The dilutions were mixed in 96-well assay plates with bacterial inoculum. Bacteria were suspended in sterile saline and added to each assay plate to obtain a final concentration of 5.5×10^5 CFU/mL. The plates were incubated at 35° C. for 20 hours in ambient air. […] After incubation, assay plates were read using a microtiter plate reader at 600 nm.

S. aureus (SA) = assay: MIC, CLSI broth microdilution, worldwide isolates: S. aureus; type: cell-based
Excerpt: as §1, §2

[1] = Phase 1 study 15 mg/kg/day once daily for five days: safety, BUN and Cr; type: in vivo, human; settings: healthy subjects
Description: An additional randomized, double-blind, placebo-controlled study was performed to assess the safety and pharmacokinetics of Compound 1 following IV administration to healthy adult volunteers according to a high dose, short course regimen of 15 mg/kg/day of Compound 1 administered once daily for five days. Compound 1 was formulated as a sterile solution at a concentration of 50 mg/mL in 10 mL glass vials for intravenous (IV) administration (“Compound 1 Injection”). Eight healthy subjects were randomized to receive either Compound 1 Injection or placebo administered IV by 10 minute infusion daily for five days. Seven subjects received 5 doses and one received 3 doses (early withdrawal for personal reasons).
BUN and creatine (Cr) were assessed daily for each of the five days prior to dosing and at day 5 post-dosing to assess renal function following this high dose, short course regimen.

[2] = Guinea pig toxicokinetics of Compound 1; type: in vivo, guinea pigs
Description: (§3) Additionally, four groups of four male and four female animals were utilized for toxicokinetic (TK) sampling and received the control or test article in the same manner as the main study groups at respective dose levels of 0 (Vehicle Control), 8, 30, or 80 mg/kg.
(§4) Physical examinations were conducted pretest on all animals and prior to study termination for main study animals. […] Blood samples for determination of the plasma concentrations of the test article were collected from TK animals at designated time points on Day 1 and Day 14. After blood collection, the TK animals were euthanized and the carcasses were discarded.

hearing function = assay: 28-day guinea pig ototoxicity study of Compound 1: ABR and observations
Description: as §3, §4

[3] = Staphylococcus aureus, SA isolates
[4] = 15 mg/kg/day IV once daily for five days, one line per Subject ID, 15 mg/kg/day

CN[C@@H]1[C@@H](O)[C@@H](O[C@@H]2[C@@H](O)[C@H](O[C@H]3OC(CNCCO)=CC[C@H]3N)[C@@H](N)C[C@H]2NC(=O)[C@@H](O)CCN)OC[C@]1(C)O [Compound 1, 6′-(2-Hydroxy-ethyl)-1-(4-amino-2(S)-hydroxy-butyryl)-sisomicin]
Cumulative % inhibited at Cmpd. MIC 2 (Acinetobacter spp. (ACB); ACB, CARB-R (20)): 30.0% | Cumulative % inhibited at Cmpd. MIC 4 (Acinetobacter spp. (ACB); ACB, CARB-R (20)): 30.0% | Cumulative % inhibited at Cmpd. MIC 8 (Acinetobacter spp. (ACB); ACB, CARB-R (20)): 70.0% | Cumulative % inhibited at Cmpd. MIC 16 (Acinetobacter spp. (ACB); ACB, CARB-R (20)): 75.0% | Cumulative % inhibited at Cmpd. MIC 32 (Acinetobacter spp. (ACB); ACB, CARB-R (20)): 95.0% | Cumulative % inhibited at Cmpd. MIC 64 (Acinetobacter spp. (ACB); ACB, CARB-R (20)): 100.0% | Cumulative % inhibited at Cmpd. MIC ≦0.5 (Acinetobacter spp. (ACB); ACB, CARB-R (20)): 5.0% | Cumulative % inhibited at Cmpd. MIC 1 (Acinetobacter spp. (ACB); ACB, WT (10)): 0.0% | Cumulative % inhibited at Cmpd. MIC 2 (Acinetobacter spp. (ACB); ACB, WT (10)): 10.0% | Cumulative % inhibited at Cmpd. MIC 4 (Acinetobacter spp. (ACB); ACB, WT (10)): 20.0% | Cumulative % inhibited at Cmpd. MIC 8 (Acinetobacter spp. (ACB); ACB, WT (10)): 60.0% | Cumulative % inhibited at Cmpd. MIC 16 (Acinetobacter spp. (ACB); ACB, WT (10)): 60.0% | Cumulative % inhibited at Cmpd. MIC 32 (Acinetobacter spp. (ACB); ACB, WT (10)): 80.0% | Cumulative % inhibited at Cmpd. MIC 64 (Acinetobacter spp. (ACB); ACB, WT (10)): 100.0% | Cumulative % inhibited at Cmpd. MIC ≦0.5 (Acinetobacter spp. (ACB); ACB, WT (10)): 0.0% | MIC50 (Acinetobacter spp. (ACB); Acinetobacter, ACB isolates): 8 µg/mL (≈ 13.5 µM) | MIC90 (Acinetobacter spp. (ACB); Acinetobacter, ACB isolates): 32 µg/mL (≈ 54 µM) | Cumulative % inhibited at Cmpd. MIC 1 (S. aureus (SA); SA (30)): 96.7% | Cumulative % inhibited at Cmpd. MIC 2 (S. aureus (SA); SA (30)): 100.0% | Cumulative % inhibited at Cmpd. MIC ≦0.5 (S. aureus (SA); SA (30)): 66.7% | Cumulative % inhibited at Cmpd. MIC 1 (S. aureus (SA); SA, MRSA (20)): 100.0% | Cumulative % inhibited at Cmpd. MIC ≦0.5 (S. aureus (SA); SA, MRSA (20)): 60.0% | Cumulative % inhibited at Cmpd. MIC 1 (S. aureus (SA); SA, MSSA (10)): 90.0% | Cumulative % inhibited at Cmpd. MIC 2 (S. aureus (SA); SA, MSSA (10)): 100.0% | Cumulative % inhibited at Cmpd. MIC ≦0.5 (S. aureus (SA); SA, MSSA (10)): 80.0% | MIC50 (S. aureus (SA); [3]): ≤ 0.25 µg/mL | MIC90 (S. aureus (SA); [3]): 0.5 µg/mL (≈ 0.844 µM) | severity of adverse events ([1]; 15 mg/kg/day IV 10 minute infusion, five days): mild to moderate | Serum Creatine, Pre-dose ([1]; 15 mg/kg/day IV once daily for five days, fifth pre-dose column, one line per Subject ID, 15 mg/kg/day): 0.7 mg/dL (2×) and 0.8 mg/dL and 1.2 mg/dL (2×) and 1.1 mg/dL and 1.0 mg/dL | BUN, Post-dose 5 [1, 4]: 13 mg/dL (3×) and 14 mg/dL and 9 mg/dL and 20 mg/dL and 15 mg/dL | BUN, Pre-dose 1 [1, 4]: 9 mg/dL (2×) and 10 mg/dL and 13 mg/dL and 5 mg/dL and 15 mg/dL and 19 mg/dL and 14 mg/dL | BUN, Pre-dose 2 [1, 4]: 18 mg/dL and 16 mg/dL and 19 mg/dL and 17 mg/dL (2×) and 8 mg/dL and 20 mg/dL and 22 mg/dL | BUN, Pre-dose 3 [1, 4]: 13 mg/dL and 18 mg/dL (2×) and 19 mg/dL and 17 mg/dL and 9 mg/dL and 15 mg/dL and 14 mg/dL | BUN, Pre-dose 4 [1, 4]: 13 mg/dL and 14 mg/dL (2×) and 12 mg/dL and 8 mg/dL and 17 mg/dL and 19 mg/dL and 16 mg/dL | BUN, Pre-dose 5 [1, 4]: 16 mg/dL (3×) and 13 mg/dL and 14 mg/dL and 11 mg/dL and 15 mg/dL | Serum Creatine, Post-dose 5 [1, 4]: 0.6 mg/dL (2×) and 1.0 mg/dL and 0.7 mg/dL and 1.1 mg/dL and 0.9 mg/dL (2×) | Serum Creatine, Pre-dose 1 [1, 4]: 0.7 mg/dL (2×) and 0.6 mg/dL (2×) and 0.9 mg/dL (2×) and 1.2 mg/dL and 1.0 mg/dL | Serum Creatine, Pre-dose 2 [1, 4]: 0.7 mg/dL and 0.6 mg/dL (2×) and 0.9 mg/dL (2×) and 1.1 mg/dL (2×) and 1.3 mg/dL | Serum Creatine, Pre-dose 3 [1, 4]: 0.6 mg/dL (3×) and 0.7 mg/dL and 1.0 mg/dL and 1.1 mg/dL and 0.9 mg/dL and 0.8 mg/dL | Serum Creatine, Pre-dose 4 [1, 4]: 0.6 mg/dL (4×) and 1.0 mg/dL and 1.2 mg/dL and 0.9 mg/dL (2×) | changes in BUN or Cr at day 5 post-dosing ([1]; 15 mg/kg/day IV, five days): no substantial changes in either BUN or Cr | tolerability ([1]; 15 mg/kg/day IV, five days): well-tolerated | ototoxicity or nephrotoxicity ([1]; 15 mg/kg/day IV, five days, through the treatment period): No evidence of ototoxicity or nephrotoxicity | guinea pig AUC relative to average human AUC at proposed clinical dose ([2]; 80 mg/kg/day guinea pig vs 15 mg/kg human): 1.5 × | AUC ([2]; both sexes, Crl:HA (Albino Hartley), guinea pig, plasma, subcutaneous, guinea pigs, 80 mg/kg/day): 370 µg·h/mL | animals with elevation of ABR thresholds (mild, 4 and 10 kHz, conductive) (hearing function; guinea pigs, 8 mg/kg dose group): one male and one female | ABR pre- to post-dosing hearing threshold shift (hearing function; guinea pigs, 8, 30, 80 mg/kg for 14 days, 4, 10, 20 kHz): no significant pre- to post-dosing hearing threshold shift at any frequency; also recorded: did not have an adverse effect | functional hearing loss (ABR) (hearing function; guinea pigs, 14 days, up to 80 mg/kg/day): no functional hearing loss; also recorded: None of the animals treated with Compound 1 at any dose showed any functional hearing loss | mortality and general observations (hearing function; guinea pigs, SC 8, 30, 80 mg/kg for 14 days): did not produce mortality and was without effect on clinical observations, body weights, physical examinations, ABR evaluations, macroscopic findings, middle ear assessments, or ossicle mobility
